Laboratory results as given in PubChem BioAssay AID2060500 (Molecular Pharmacology Branch, DTP, NCI, 2025).

Tested on: 596521-263-R-J1-PDC complex spheroids, viability % of control
Assay: Anticancer human tumor 596521-263-R-J1-PDC patient-derived soft tissue sarcoma cell line growth inhibition [GQUAD]
Settings: for IC50: curve of first compound; for viability, T/C: stronger effect = lower value
Procedure, shortened: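 Viability of tumor cells grown as complex spheroids with endothelial and stromal cells, exposed to drug combinations. Top concentration at or near clinical Cmax (else 10 microM), diluted in half-log increments.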

[1] = second compound 0.0316 µM, first compound 0.0316 µM
[2] = second compound 0.0316 µM, first compound 0.316 µM
[3] = second compound 0.1 µM, first compound 0.0316 µM
[4] = second compound 0.1 µM, first compound 0.316 µM
[5] = second compound 0.316 µM, first compound 0.0316 µM
[6] = second compound 0.316 µM, first compound 0.316 µM
[7] = second compound 1 µM, first compound 0.0316 µM
[8] = second compound 1 µM, first compound 0.316 µM
[9] = second compound 3.16 µM, first compound 0.0316 µM
[10] = second compound 3.16 µM, first compound 0.316 µM
[11] = second compound 10 µM, first compound 0.0316 µM
[12] = second compound 10 µM, first compound 0.316 µM
[13] = second compound 0.0316 µM, first compound 0.1 µM
[14] = second compound 0.0316 µM, first compound 1 µM
[15] = second compound 0.0316 µM, first compound 3.16 µM
[16] = second compound 0.0316 µM, first compound 10 µM
[17] = second compound 0.1 µM, first compound 0.1 µM
[18] = second compound 0.1 µM, first compound 1 µM
[19] = second compound 0.1 µM, first compound 3.16 µM
[20] = second compound 0.1 µM, first compound 10 µM
[21] = second compound 0.316 µM, first compound 0.1 µM
[22] = second compound 0.316 µM, first compound 1 µM
[23] = second compound 0.316 µM, first compound 3.16 µM
[24] = second compound 0.316 µM, first compound 10 µM
[25] = second compound 1 µM, first compound 0.1 µM
[26] = second compound 1 µM, first compound 1 µM
[27] = second compound 1 µM, first compound 3.16 µM
[28] = second compound 1 µM, first compound 10 µM
[29] = second compound 3.16 µM, first compound 0.1 µM
[30] = second compound 3.16 µM, first compound 1 µM
[31] = second compound 3.16 µM, first compound 3.16 µM
[32] = second compound 3.16 µM, first compound 10 µM
[33] = second compound 10 µM, first compound 0.1 µM
[34] = second compound 10 µM, first compound 1 µM
[35] = second compound 10 µM, first compound 3.16 µM
[36] = second compound 10 µM, first compound 10 µM
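Further: spheroids exposed to drugs for 7 days before viability reading.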
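Wherever viability, T/C is given: 100% = DMSO vehicle control viability.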

SMILES: Cc1[nH]c2ccccc2c1CCNCc1ccc(/C=C/C(=O)NO)cc1 + Cc1[nH]c2ccc(F)cc2c1-c1nc2c3cccnc3c3ncccc3c2[nH]1
- IC50 (second compound 0.0316 µM): > 316 nM
- IC50 (second compound 0.1 µM): > 316 nM
- IC50 (second compound 0.316 µM): > 316 nM
- IC50 (second compound 1 µM): > 316 nM
- IC50 (second compound 3.16 µM): > 316 nM
- IC50 (second compound 10 µM): > 316 nM
- viability, T/C (second compound 0.0316 µM, first compound 0.000999 µM): 108%
- viability, T/C (second compound 0.0316 µM, first compound 0.00316 µM): 97%
- viability, T/C (second compound 0.0316 µM, first compound 0.00999 µM): 100%
- viability, T/C [1]: 82%
- viability, T/C (second compound 0.0316 µM, first compound 0.0999 µM): 96.4%
- viability, T/C [2]: 90.1%
- viability, T/C (second compound 0.1 µM, first compound 0.000999 µM): 99.3%
- viability, T/C (second compound 0.1 µM, first compound 0.00316 µM): 90.6%
- viability, T/C (second compound 0.1 µM, first compound 0.00999 µM): 94.2%
- viability, T/C [3]: 91.3%
- viability, T/C (second compound 0.1 µM, first compound 0.0999 µM): 86.9%
- viability, T/C [4]: 92.7%
- viability, T/C (second compound 0.316 µM, first compound 0.000999 µM): 102%
- viability, T/C (second compound 0.316 µM, first compound 0.00316 µM): 94.7%
- viability, T/C (second compound 0.316 µM, first compound 0.00999 µM): 93.2%
- viability, T/C [5]: 94.3%
- viability, T/C (second compound 0.316 µM, first compound 0.0999 µM): 87%
- viability, T/C [6]: 94.9%
- viability, T/C (second compound 1 µM, first compound 0.000999 µM): 95.9%
- viability, T/C (second compound 1 µM, first compound 0.00316 µM): 99.6%
- viability, T/C (second compound 1 µM, first compound 0.00999 µM): 91.4%
- viability, T/C [7]: 83.9%
- viability, T/C (second compound 1 µM, first compound 0.0999 µM): 90.1%
- viability, T/C [8]: 94.2%
- viability, T/C (second compound 3.16 µM, first compound 0.000999 µM): 82.6%
- viability, T/C (second compound 3.16 µM, first compound 0.00316 µM): 82.2%
- viability, T/C (second compound 3.16 µM, first compound 0.00999 µM): 91%
- viability, T/C [9]: 90.1%
- viability, T/C (second compound 3.16 µM, first compound 0.0999 µM): 84.1%
- viability, T/C [10]: 88.8%
- viability, T/C (second compound 10 µM, first compound 0.000999 µM): 81.2%
- viability, T/C (second compound 10 µM, first compound 0.00316 µM): 67.2%
- viability, T/C (second compound 10 µM, first compound 0.00999 µM): 85%
- viability, T/C [11]: 75.5%
- viability, T/C (second compound 10 µM, first compound 0.0999 µM): 76.4%
- viability, T/C [12]: 72%

SMILES: CC1COCCN1c1cc(C2(O)CC3CCC(C2)O3)c2cnn(-c3ccn[nH]3)c2n1 (stereo not drawn) + CN(C)c1ccc(Nc2c3ccc(NC(=O)CCN4CCCC4)cc3nc3cc(NC(=O)CCN4CCCC4)ccc23)cc1
- IC50 (second compound 0.0316 µM): 134 nM
- IC50 (second compound 0.1 µM): 221 nM
- IC50 (second compound 0.316 µM): 148 nM
- IC50 (second compound 1 µM): 162 nM
- IC50 (second compound 3.16 µM): 112 nM
- IC50 (second compound 10 µM): 66.4 nM
- viability, T/C [1]: 72.6%
- viability, T/C [13]: 48.7%
- viability, T/C [2]: 40.9%
- viability, T/C [14]: 29.4%
- viability, T/C [15]: 24.3%
- viability, T/C [16]: 12.3%
- viability, T/C [3]: 70.3%
- viability, T/C [17]: 56.9%
- viability, T/C [4]: 48.3%
- viability, T/C [18]: 32.6%
- viability, T/C [19]: 22.8%
- viability, T/C [20]: 13.6%
- viability, T/C [5]: 66.3%
- viability, T/C [21]: 48.8%
- viability, T/C [6]: 47.3%
- viability, T/C [22]: 31.9%
- viability, T/C [23]: 20.4%
- viability, T/C [24]: 13.2%
- viability, T/C [7]: 69.6%
- viability, T/C [25]: 50.3%
- viability, T/C [8]: 46.6%
- viability, T/C [26]: 31.1%
- viability, T/C [27]: 24.7%
- viability, T/C [28]: 14.3%
- viability, T/C [9]: 58.5%
- viability, T/C [29]: 51.2%
- viability, T/C [10]: 40.5%
- viability, T/C [30]: 35.2%
- viability, T/C [31]: 23.9%
- viability, T/C [32]: 15.6%
- viability, T/C [11]: 61.7%
- viability, T/C [33]: 39%
- viability, T/C [12]: 36.8%
- viability, T/C [34]: 28.2%
- viability, T/C [35]: 21.6%
- viability, T/C [36]: 14.8%

SMILES: CCCS(=O)(=O)Nc1ccc(F)c(C(=O)c2c[nH]c3ncc(-c4ccc(Cl)cc4)cc23)c1F + CN(C)c1ccc(Nc2c3ccc(NC(=O)CCN4CCCC4)cc3nc3cc(NC(=O)CCN4CCCC4)ccc23)cc1
- IC50 (second compound 0.0316 µM): 5180 nM
- IC50 (second compound 0.1 µM): 5510 nM
- IC50 (second compound 0.316 µM): 5600 nM
- IC50 (second compound 1 µM): 6650 nM
- IC50 (second compound 3.16 µM): 5010 nM
- IC50 (second compound 10 µM): 1820 nM
- viability, T/C [1]: 94.7%
- viability, T/C [13]: 83.9%
- viability, T/C [2]: 95.3%
- viability, T/C [14]: 82.1%
- viability, T/C [15]: 65.8%
- viability, T/C [16]: 29.4%
- viability, T/C [3]: 101%
- viability, T/C [17]: 88.9%
- viability, T/C [4]: 104%
- viability, T/C [18]: 83%
- viability, T/C [19]: 69.8%
- viability, T/C [20]: 29.9%
- viability, T/C [5]: 94.4%
- viability, T/C [21]: 93.8%
- viability, T/C [6]: 89.4%
- viability, T/C [22]: 80%
- viability, T/C [23]: 65.9%
- viability, T/C [24]: 34.4%
- viability, T/C [7]: 98.5%
- viability, T/C [25]: 97.7%
- viability, T/C [8]: 85.8%
- viability, T/C [26]: 84.1%
- viability, T/C [27]: 71%
- viability, T/C [28]: 39.1%
- viability, T/C [9]: 93.2%
- viability, T/C [29]: 91.7%
- viability, T/C [10]: 94%
- viability, T/C [30]: 84.3%
- viability, T/C [31]: 56.9%
- viability, T/C [32]: 39.8%
- viability, T/C [11]: 62.9%
- viability, T/C [33]: 60.5%
- viability, T/C [12]: 56.9%
- viability, T/C [34]: 57.3%
- viability, T/C [35]: 44.5%
- viability, T/C [36]: 30.1%

SMILES: C=CCn1c(=O)c2cnc(Nc3ccc(N4CCN(C)CC4)cc3)nc2n1-c1cccc(C(C)(C)O)n1 + CN(C)c1ccc(Nc2c3ccc(NC(=O)CCN4CCCC4)cc3nc3cc(NC(=O)CCN4CCCC4)ccc23)cc1
- IC50 (second compound 0.0316 µM): 644 nM
- IC50 (second compound 0.1 µM): 544 nM
- IC50 (second compound 0.316 µM): 484 nM
- IC50 (second compound 1 µM): 760 nM
- IC50 (second compound 3.16 µM): 757 nM
- IC50 (second compound 10 µM): 308 nM
- viability, T/C [1]: 90.4%
- viability, T/C [13]: 81.2%
- viability, T/C [2]: 53.5%
- viability, T/C [14]: 44.9%
- viability, T/C [15]: 42%
- viability, T/C [16]: 27.7%
- viability, T/C [3]: 105%
- viability, T/C [17]: 82.5%
- viability, T/C [4]: 53.9%
- viability, T/C [18]: 44.1%
- viability, T/C [19]: 45.3%
- viability, T/C [20]: 32.9%
- viability, T/C [5]: 90.5%
- viability, T/C [21]: 90.4%
- viability, T/C [6]: 54.5%
- viability, T/C [22]: 47.3%
- viability, T/C [23]: 46.1%
- viability, T/C [24]: 32.1%
- viability, T/C [7]: 86.4%
- viability, T/C [25]: 79.6%
- viability, T/C [8]: 57.1%
- viability, T/C [26]: 47%
- viability, T/C [27]: 49.4%
- viability, T/C [28]: 34.7%
- viability, T/C [9]: 100%
- viability, T/C [29]: 84.8%
- viability, T/C [10]: 63.9%
- viability, T/C [30]: 44.4%
- viability, T/C [31]: 38.2%
- viability, T/C [32]: 31.2%
- viability, T/C [11]: 66.9%
- viability, T/C [33]: 54.9%
- viability, T/C [12]: 47.3%
- viability, T/C [34]: 44.7%
- viability, T/C [35]: 34.2%
- viability, T/C [36]: 20.7%
